Values of other authors as cited in US20250114335A1, “METHODS AND COMPOSITIONS FOR THE TREATMENT OF EPILEPSY” (ARIZONA BOARD OF REGENTS ON BEHALF OF THE UNIVERSITY OF …, priority 2022, published 2025).

Assays:
[1] = test system: B6-D/+ (Scn8a-N1768D) adult mice; details: CBD-treated B6-D/+ males, comparison; cited from earlier work
[2] = test system: B6-D/D (Scn8a-N1768D) juvenile mice; details: CBD-treated B6-D/D males, comparison; cited from earlier work

SMILES: C=C(C)[C@@H]1CCC(C)=C[C@H]1c1c(O)cc(CCCCC)cc1O [CBD]
- standard effect size, survival [1]: 0.50
- standard effect size, survival [2]: 0.35
